Assay results published in patent US9150577B2, “Heterocyclic compounds containing an indole core” (Boehringer Ingelheim International GmbH, priority 2009, dated 2015).

Columns and labels:
[1] = system: NHE1; details: cited from earlier work
[2] = target: Human RSK2 (Homo sapiens (Human), UniProt P51812); test: Human RSK2 assay (Kinase Glo Plus, residual ATP); assay type: biochemical;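 also: recombinant human RSK2 phosphorylating a substrate peptide, 90 min at 28 °C, leftover ATP read by luminescence, RLU scaled between no-kinase background and uninhibited kinase controls, 4-parameter fit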
Chain of Human RSK2 (P51812 whole entry): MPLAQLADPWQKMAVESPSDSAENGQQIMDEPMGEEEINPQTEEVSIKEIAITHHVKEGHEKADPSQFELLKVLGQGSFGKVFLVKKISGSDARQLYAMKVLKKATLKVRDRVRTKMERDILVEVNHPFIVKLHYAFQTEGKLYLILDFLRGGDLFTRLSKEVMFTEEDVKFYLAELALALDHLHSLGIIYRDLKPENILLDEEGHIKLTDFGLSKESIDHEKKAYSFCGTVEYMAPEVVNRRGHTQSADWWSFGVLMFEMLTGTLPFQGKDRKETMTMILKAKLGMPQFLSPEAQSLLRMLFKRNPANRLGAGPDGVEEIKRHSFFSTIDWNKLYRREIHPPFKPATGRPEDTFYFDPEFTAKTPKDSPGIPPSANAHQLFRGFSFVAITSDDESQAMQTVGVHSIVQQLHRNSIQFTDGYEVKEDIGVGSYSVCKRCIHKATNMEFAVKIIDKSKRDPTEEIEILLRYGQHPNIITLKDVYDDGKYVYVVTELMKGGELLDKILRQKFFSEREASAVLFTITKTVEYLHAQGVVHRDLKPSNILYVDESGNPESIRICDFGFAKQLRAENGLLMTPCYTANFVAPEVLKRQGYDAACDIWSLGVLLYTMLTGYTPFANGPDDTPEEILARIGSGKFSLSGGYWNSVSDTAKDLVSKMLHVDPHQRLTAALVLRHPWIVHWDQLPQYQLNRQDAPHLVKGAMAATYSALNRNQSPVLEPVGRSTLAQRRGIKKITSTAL

Row | IC50 [2] [nM] | Structure (SMILES) | further results
1 |  | Cc1ccc(-c2c(C(=O)CF)n(CCCO)c3ncnc(N)c23)cc1 [fmk] | basal NHE1 activity ([1]; basal): without affecting basal activity; phosphorylation of NHE1 [1]: inhibit; phenylephrine-induced enhanced NHE1 activity ([1]; phenylephrine-induced): inhibit
2 | 0.38 | CN(C)CCCn1c(NC(=O)c2ccc3cc4n(c3c2)C(C)(C)CNC4=O)nc2ccccc21 [Example 98, N-{1-[3-(dimethylamino)propyl]-1H-benzimidazol-2-yl}-4,4-dimethyl-1-oxo-1,2,3,4-tetrahydropyrazino[1,2-a]indole-7-carboxamide] | 
3 | 320 | Cn1cc(NC(=O)c2ccc3cc4n(c3c2)CC2(CCC2)CNC4=O)cn1 [Example 24, N-(1-methyl-1H-pyrazol-4-yl)-1′-oxo-2′,3′-dihydro-1′H-spiro[cyclobutane-1,4′-[1,4]diazepino[1,2-a]indole]-8′-carboxamide] | 
4 | 110 | CC1(C)CNC(=O)c2cc3ccc(C(=O)Nc4cnn(Cc5ccccc5)c4)cc3n2C1 [Example 122, N-(1-benzyl-1H-pyrazol-4-yl)-4,4-dimethyl-1-oxo-2,3,4,5-tetrahydro-1H-[1,4]diazepino[1,2-a]indole-8-carboxamide] | 
5 | 19 | CC(C)(C)n1c(NC(=O)c2ccc3cc4n(c3c2)CCCNC4=O)nc2ccccc21 [Example 65, N-(1-tert-butyl-1H-benzimidazol-2-yl)-1-oxo-2,3,4,5-tetrahydro-1H-[1,4]diazepino[1,2-a]indole-8-carboxamide] | 
6 | 3.4 | CC(C)n1c(NC(=O)c2ccc3cc4n(c3c2)[C@@H](C)[C@@H](C)NC4=O)nc2ccccc21 (relative stereo) [Example 67, cis-3,4-dimethyl-1-oxo-N-[1-(propan-2-yl)-1H-benzimidazol-2-yl]-1,2,3,4-tetrahydropyrazino[1,2-a]indole-7-carboxamide] | 
